Test results as given in patent US4634707A, “5-Pyrimidinecarboxamides and treatment of leukemia and tumors therewith” (Uniroyal Chemical Company, priority 1984, dated 1987).

Key:
[1] = tested on: Ehrlich Ascites carcinoma; settings: Ehrlich Ascites carcinoma in mice; Chem. & Pharm. Bull. (Tokyo) 8, 1021-1028 (1960); cited from earlier work
L1210 leukemia = test: NCI 3LE31, i.p.-implanted L1210 lymphoid leukemia; assay type: in vivo, DBA/2 mice; settings: for response vs control in vivo at 25 mg/kg: 25 mg/kg i.p. daily for nine days; for response vs control in vivo at 50 mg/kg: 50 mg/kg i.p. daily for nine days; for response vs control in vivo at 100 mg/kg: 100 mg/kg i.p. daily for nine days
Method: The spectrum of antitumor activity of the compound of Example 1 was determined employing a number of standard National Cancer Institute (NCI) protocols. The antitumor activity was determined in vivo against several different tumors, employing various treatment schedules and routes of administration.
Samples of the test compounds of Examples 1-10 and a number of structurally-related control compounds were tested in accordance with National Cancer Institute test protocol 3LE31 (NCI Protocol 1.100, Cancer Chemotherapy Reports Part 3, Vol. 3, No. 2, September 1972) to determine the effects of the several compounds on i.p.-implanted L1210 leukemia (J. Nat'l. Cancer Inst. 13(5):1328, 1953). Each test involved implantation of the leukemia cells in six DBA/2 mice, one sex per experiment, the male mice weighing a minimum of 18 grams and the female mice weighing a minimum of 17 grams, and all of the test animals being within a three gram weight range. The test compound was administered by i.p. injections, in 0.1 ml. doses of diluted ascitic fluid (10^5 cells per dose), commencing one day after the tumor implant and continuing daily for nine days.
The test animals were weighed and survivors recorded on a regular basis during a thirty day test period. The ratio of survival time for the treated and control animals (T/C) was determined as a percentage.
The tests were carried out at varying dosage levels and with varying numbers of repetitions, depending upon the results obtained with each test compoud. […] A reproducible T/C of 150% or higher is considered significant activity.
The number of mice "cured", viz., those surviving from each animal test group after the thirty day test period, is indicated in parenthesis following the T/C percentage data in Table III below: […]

[2] = Mus musculus, L1210, ip, read-out: T/C % (survival time treated/control)
[3] = Mus musculus, L1210, ip, 200 mg/kg i.p. daily for nine days, read-out: T/C % (survival time treated/control)

SMILES	anti-tumor activity (in words) [1]	response vs control in vivo at 25 mg/kg (L1210 leukemia; [2])	response vs control in vivo at 50 mg/kg (L1210 leukemia; [2])	response vs control in vivo at 100 mg/kg (L1210 leukemia; [2])	response vs control in vivo at 200 mg/kg (L1210 leukemia; [3])	further results
Cn1c(O)c(C(=O)Nc2ccccc2)c(=O)[nH]c1=O [1-methyl derivative]	neither of its 1-methyl or 1-phenyl-substituted derivatives, exhibited anti-tumor activity	–	–	–	–	–
O=C(Nc1ccccc1)c1c(O)n(-c2ccccc2)c(=O)[nH]c1=O [1-phenyl derivative]	neither of its 1-methyl or 1-phenyl-substituted derivatives, exhibited anti-tumor activity	–	–	–	–	–
O=C1NC(=O)C(C(=O)Nc2ccccc2)C(=O)N1 [5-phenylcarbamoylbarbituric acid]	exhibited anti-tumor activity	–	–	–	–	–
COc1ccc(NC(=O)c2c(O)[nH]c(=S)[nH]c2=O)cc1 [Example 6, 1,2,3,4-tetrahydro-6-hydroxy-N-(4-methoxyphenyl)-4-oxo-2-thioxo-5-pyrimidinecarboxamide]	–	112%	108%	104%	127%	response vs control in vivo at 400 mg/kg (L1210 leukemia; Mus musculus, L1210, ip, 400 mg/kg i.p. daily for nine days, read-out: T/C % (survival time treated/control)): 127%
CCOc1ccc(NC(=O)c2c(O)[nH]c(=S)[nH]c2=O)cc1 [Example 7, N-(4-ethoxyphenyl)-1,2,3,4-tetrahydro-6-hydroxy-4-oxo-2-thioxo-5-pyrimidinecarboxamide]	–	115%	–	178%	–	T/C % (survival time treated/control) (L1210 leukemia; 200 mg/kg i.p. daily for nine days): Toxic; response vs control in vivo at 6.25 mg/kg (L1210 leukemia; Mus musculus, L1210, ip, 6.25 mg/kg i.p. daily for nine days, read-out: T/C % (survival time treated/control)): 102%; response vs control in vivo at 12.5 mg/kg (L1210 leukemia; Mus musculus, L1210, ip, 12.5 mg/kg i.p. daily for nine days, read-out: T/C % (survival time treated/control)): 97%
O=C(Nc1ccccc1F)c1c(O)[nH]c(=S)[nH]c1=O [Example 8, N-(2-fluorophenyl)-1,2,3,4-tetrahydro-6-hydroxy-4-oxo-2-thioxo-5-pyrimidinecarboxamide]	–	148%	105%	128%	118%	–
O=C(Nc1ccc(F)cc1F)c1c(O)[nH]c(=S)[nH]c1=O [Example 9, N-(2,4-difluorophenyl)-1,2,3,4-tetrahydro-6-hydroxy-4-oxo-1-thioxo-5-pyrimidinecarboxamide]	–	113%	113%	114%	133%	–
COc1ccc(C)cc1NC(=O)c1c(O)[nH]c(=S)[nH]c1=O [Example 10, 1,2,3,4-tethydro-6-hydroxy-N-(2-methoxy-5-methylphenyl)-4-oxo-2-thioxo-5-pyrimidinecarboxamide]	–	110%	130%	113%	113%	–
